Type in all cases: in vivo
For assay [1], the system named is WT and α1b-AR KO mice. Nature of the assay: Locomotor activity in circular corridor after acute drug injection. Conditions: for locomotor activity: i.p., different doses. As for the experimental part: FIG. 2 is a series of dose response graphs that depicts the results of locomotor response to novelty, saline, scopolamine and chloro-APB experiments in WT and α1b-AR KO mice. […] Animals were placed in the experimental apparatus for 90 minutes, received a saline injection and were replaced in the apparatus for 60 minutes. On the following day, animals were placed in the experimental apparatus for 90 minutes, they received an intraperitoneal injection of either saline or scopolamine (1 mg/kg) and their locomotor response was measured every 5 minutes for 60 minutes. FIG. 2D represents the results of locomotor response to chloro-APB; animals were placed in the experimental apparatus for 90 minutes, received a saline injection and were replaced in the apparatus for 60 minutes. On the following days, animals were placed in the experimental apparatus for 90 minutes, they received an intraperitoneal injection of chioro-APB and their locomotor response was measured every 5 minutes for 60 minutes. Several doses of chloro-APB were tested on consecutive days in a random order.
Independent groups of animals were used for each treatment to avoid eventual behavioral sensitization (N=6-16 per group).
(§1) Mice were introduced in a circular corridor (4.5 cm width, 17 cm external diameter) crossed by four infrared beams (1.5 cm above the base) placed at every 90° (Imetronic, Pessac, France). The locomotor activity was counted when animals interrupted two successive beams and, thus, had traveled ¼ of the circular corridor. In each session, the spontaneous activity was recorded for 90 minutes, before mice received either saline or drugs. Their activity was recorded for an additional 60 minutes or 120 minutes period. The first session was a session of habituation to the experimental procedure during which animals received saline (˜3 ml/kg, i.p.). The locomotor response to a drug administration was measured on the following day. Tests were performed between 12:00 and 6:00 p.m. in stable conditions of temperature and humidity.

In assay [2] the test system is WT and α1b-AR KO mice. Nature of the assay: Locomotor sensitization induced by repeated drug administration. On the procedure:
Animals spent 90 minutes in the experimental apparatus, received a saline injection and were replaced in the apparatus for 60 minutes. […] Four similar sessions took place every other day. The sixth session took place after a 10-day withdrawal. Locomotor responses measured during the first hour following each injection are presented in function of the number of injections and slope values. N=6 to 15 animals per group.
N=6 to 12 animals per group. […] FIG. 6B represents the time course of the locomotor responses measured every 5 minutes.
as §1
Data were analyzed with Student's t-test or analysis of variance. For behavioral sensitization experiments, correlation between the number of drug injections and the amplitude of the locomotor responses was analyzed with linear regression and the influence of genotype on this correlation with an analysis of covariance. Genotype and prazosin treatments were between-subjects factors. […] Differences were considered significant when p<0.05.
The rate of sensitization was evaluated by determining the slope of the “number of injections/response” curve (FIG. 5).

Assay [3] relates to WT and α1bAR-KO mice. As to the kind of experiment: Microdialysis: extracellular DA levels in the nucleus accumbens after systemic D-amphetamine. As for the experimental part: Mice were anaesthetised with sodium pentobarbital (60 mg/kg; Sanofi Santé Animale, France) and placed in a stereotaxic frame (Kopf instruments). The head was positioned by means of a mouse nose clamp adaptator (Kopf model 922) supplemented by rat ear bars placed lightly in the external auditory meatus. A unilateral permanent cannula (CMA/7 guide cannula, Microdialysis AB, Sweden) was implanted into the nucleus accumbens and was secured on the skull with screw and dental cement. The coordinates for the guide cannula tip were antero-posterior (AP): +1.3 relative to bregma, medio-lateral (ML): +0.8, and dorso-ventral (DV): −2,4 mm from dura (Paxinos and Franklin, The mouse brain in stereotaxic coordinates, Academic Press 2001).
The day of the experiment, the microdialysis probe was inserted (CMA/7, Membrane length 2 mm and diameter 0.24 mm, cut-off: 6000 Da, Microdialysis AB, Sweden, for mice or CMA/11 with identical probe characteristics for rats). Artificial CSF (in mM: NaCl: 147; KCl: 3.5; CaCl2: 1; MgCl2: 1.2; NaH2PO4: 1; NaHCO3: 25, pH=7.6) was perfused with a CMA100 microinjection pump through the probe at a rate of 1 μl/min (2 μl/min for rats) via FEP catheter (internal diameter 0.12 mm for mice) or polyethylene catheter (internal diameter 0.3 mm for rats) connected to a fluid swivel. Adequate steady state of DA levels in perfusate samples was reached 2 hours and 20 minutes after probe insertion for mice and rats, and samples were collected in 300 μl vials placed into a refrigerated computer-controlled fraction collector (CMA/170). Samples (20 μl every 20-minutes for mice and 10 μl every 5 minutes for rats) were collected during 100 minutes and 30 minutes for mice and rats, respectively, to determine basal extracellular DA values.
Dialysate samples were completed to 30 μl with the mobile phase and placed into a refrigerated automatic injector (Triathlon, Spark Holland, Emmen, The Netherlands). Twenty five μl of the sample were injected every 15 minutes through a rheodyne valve in the mobile phase circuit. High-performance liquid chromatography was performed with a reverse-phase column (80×4.6 mm, […] particle size, HR-80, ESA INC., Chelmsford, Mass.). Mobile phase (NaH2PO4 75 mM, EDTA 20 μM, octane sulfonic acid 2.75 mM, triethylamine 0.7 mM, acetonitrile 6%, methanol 6%, and pH 5.2) was delivered at 0.7 ml/min by an ESA-580 pump. Electrochemical detection was performed with an ESA coulometric detector (Coulochem II 5100A, with a 5014B analytical cell; Eurosep, Cergy, France). […]
(§2) Results presented are means±S.E.M of data obtained with 5 to 9 animals. […] Data from microdialysis experiments were expressed as a percentage of the respective mean basal value to compensate for inter-subject differences. […]

The subject of assay [4] is WT and α1bAR-KO mice. As to the kind of experiment: Locomotor activity after systemic D-amphetamine during microdialysis experiments. Conditions: 120 minutes after injection. As for the experimental part:
as §1
Results presented are means±S.E.M of data obtained with 5 to 9 animals. Statistical analysis was performed using Graph Pad Prism 3.0 software, (San Diego, Calif.). Data from microdialysis experiments were expressed as a percentage of the respective mean basal value to compensate for inter-subject differences. […] LogEC50's were compared after fitting curves with a Student's t-test. Pharmacological treatments correspond to independent groups of animals. Significant differences were set at p<0.05.

In a further assay the test system is C57BL6/J mice. Nature of the assay: Local perfusion (reverse dialysis) of D-amphetamine in the nucleus accumbens, mice.
A further assay has as its system Sprague-Dawley rats. Nature of the assay: Local perfusion (reverse dialysis) of D-amphetamine in the nucleus accumbens, rats. Conditions: read-out: EC50 of DA release (extracellular DA levels). As for the experimental part:
Extracellular DA levels are expressed in percent of basal DA values (3.50±0.021 and 4.71±0.015 pg DA per 20 minutes for mice and rats, respectively).
Rats were anesthetised with sodium pentobarbital (60 mg/kg; Sanofi Santé Animale, France). A unilateral permanent cannula (CMA/11 guide cannula, Microdialysis AB, Sweden) was implanted into the nucleus accumbens. The coordinates for the guide cannula tip were antero-posterior (AP): +1.7 relative to bregma, medio-lateral (ML): +1.1, and dorso-ventral (DV): −5.7 mm from dura (Paxinos and Watson, Ann. Rev. Pharmacol. Toxicol. 32:63(−77, 1986). After surgery, animals were placed in individual plastic cages and allowed to recover for at least 4 days.
The day of the experiment, the microdialysis probe was inserted (CMA/7, Membrane length 2 mm and diameter 0.24 mm, cut-off: 6000 Da, Microdialysis AB, Sweden, for mice or CMA/11 with identical probe characteristics for rats). […]
as §2

[5] abbreviates: α1bAR-KO mice, D-amphetamine 3 mg/kg.

Experimental for C57BL6/J mice: Dialysate samples were completed to 30 μl with the mobile phase and placed into a refrigerated automatic injector (Triathlon, Spark Holland, Emmen, The Netherlands). Twenty five μl of the sample were injected every 15 minutes through a rheodyne valve in the mobile phase circuit. High-performance liquid chromatography was performed with a reverse-phase column (80×4.6 mm, 3 μM particle size, HR-80, ESA INC., Chelmsford, Mass.). Mobile phase (NaH2PO4 75 mM, EDTA 20 μM, octane sulfonic acid 2.75 mM, triethylamine 0.7 mM, acetonitrile 6%, methanol 6%, and pH 5.2) was delivered at 0.7 ml/min by an ESA-580 pump. […]

Consider `C[C@H](N)Cc1ccccc1.C[C@H](N)Cc1ccccc1.O=S(=O)(O)O` [D-amphetamine, D-amphetamine sulfate], for which the “amplitude of locomotor response, α1b-AR KO vs WT mice” value in the assay with WT and α1b-AR KO mice [1] (D-amphetamine 2 and 3 mg/kg, cocaine and morphine independent of dose) was “significantly lower”. For the same molecule, the locomotor activity result is recorded as “dose-dependent stimulation of locomotor activity” in the assay on WT and α1b-AR KO mice [1] (WT mice); “also increased locomotor activity” in the assay on WT and α1b-AR KO mice [1] (α1b-AR KO mice). For the same molecule, the “rate of sensitization: slope of the number of injections/response curve” value with WT and α1b-AR KO mice [2] (WT mice, D-amphetamine 1 mg/kg) was 179.8±69.1; in the assay with WT and α1b-AR KO mice [2] (WT mice, D-amphetamine 2 mg/kg) it was 265+71; with WT and α1b-AR KO mice [2] (α1b-AR KO mice, D-amphetamine 1 mg/kg) it was 33.4±17.7; with WT and α1b-AR KO mice [2] (α1b-AR KO mice, D-amphetamine 2 mg/kg), 104.4±31. Besides, the “extracellular DA levels in the nucleus accumbens” value with WT and α1bAR-KO mice [3] (WT mice, D-amphetamine 3 mg/kg i.p.) is on record as “enhanced extracellular DA levels”; with WT and α1bAR-KO mice [3] (WT mice, D-amphetamine 6 mg/kg i.p.), “enhanced extracellular DA levels”; with WT and α1bAR-KO mice [3] (setting [5]), “did not modify basal extracellular DA levels”. The “mean increase in extracellular DA levels in the nucleus accumbens” value in the assay with WT and α1bAR-KO mice [3] (α1bAR-KO mice, D-amphetamine 6 mg/kg, vs basal) is “+25%”. The locomotor hyperactivity in the assay with WT and α1bAR-KO mice [4] (WT mice, D-amphetamine 3 mg/kg) is 1352±389; in the assay on WT and α1bAR-KO mice [4] (WT mice, D-amphetamine 6 mg/kg), 2758±199; in the assay with WT and α1bAR-KO mice [4] (setting [5]), 219±62; in the assay on WT and α1bAR-KO mice [4] (α1bAR-KO mice, D-amphetamine 6 mg/kg) it was 734±184. In the assay with C57BL6/J mice (3 μM D-amphetamine, local perfusion in nucleus accumbens, WT mice vs rats (Darracq et al.)), the “DA release in WT mice lower than previously found in rats” value is “more than 5 fold”. Besides, the EC50 (in general, the midpoint of the concentration-response curve) with C57BL6/J mice (C57BL6/J mice, local perfusion in nucleus accumbens, read-out: EC50 of DA release (extracellular DA levels)) came to 15.6 ± 1.1 µM; in the assay with Sprague-Dawley rats, 11.8 ± 1.3 µM. The “locomotor hyperactivity on local perfusion” value with C57BL6/J mice (mice nucleus accumbens, up to 100 μM) was “did not induce any locomotor hyperactivity”.

(Values after patent publication US20030217372A1, “Methods of using alpha 1b-adrenergic receptors” (priority 2002, published 2003).)
